From patent US20260150841A1, “PYRIDINE COMPOUNDS FOR COMBATTING DIHYDROOROTATE-DEHYDROGENASE INHIBITOR-RESISTANT PHYTOPATHOGENIC FUNGI” (priority 2022, published 2026)
≈ marks a conversion by molar mass, not a printed value. Read-outs that look alike come from different tables or passages of the source.

Legend:
Type in all cases: cell-based
[1] = test system: Sclerotinia sclerotiorum (sensitive, wild-type); experiment: Activity against Sclerotinia sclerotiorum in tissue culture plate assay with mycelial plugs, wild type; conditions: 168 h, % growth after 7 days at 18° C., read-out: Absolute IC50, wild type
Experimental: Fungal strains used: • a) Sclerotinia sclerotiorum (sensitive, wild-type) • b) Mutants of Sclerotinia sclerotiorum
Pure cultures are grown on DOB-agar medium, (3.4 g/l YNB (Becton Dickinson), 10 g/l Ammoniumsulfat, 40 g/l Glucose) for 5-7 days at 18° C. Mycelial plugs (6 mm diame-ter) taken from the margin of the colonies are used as inoculum for the sensitivity test. 500 μl fungicide-amended DOB medium (3.4 g/l YNB (Becton Dickinson), 10 g/l Ammoniumsulfat, 40 g/l Glucose, adjusted to pH 7) are added to each well of 24-well tissue culture plates. Each well is then inoculated with a mycelial plug, with the myce-lium surface up. Two replicate wells are used for each isolate and fungicide concentration. Growth is assed after 7 days incubation at 18° C. in the dark by estimating % growth in the well. IC50-values (concentration of test compound resulting in 50% inhibition of fungal growth) were calculated from the resulting dose-response for each compound and strain.

[2] = test system: Botrytis cinerea mutant V195F; experiment: Activity against Botrytis cinerea in the microtiter test, mutant V195F; conditions: for IC50: Botrytis cinerea, MUTANTV195F, 168 h, read-out: Absolute IC50, V195F, Botrytis cinerea mutant V195F
Description: (§1) The active substances were formulated separately as a stock solution in dimethyl sulfoxide (DMSO) at a concentration of 10 000 ppm.
(§2) Spontaneous mutants were selected by plating out B. cinerea spores (in the range of 10^7-10^8) on DOB agar plates (3.4 g/l YNB (Becton Dickinson), 10 g/l Ammoniumsulfat, 40 g/l Glucose, 20 g/l Agar), amended with different lethal concentrations of active ingredient. After 7-14 days growing colonies were transferred to DOB agar plates, amended with the same lethal concentrations of active ingredient and then further propagated on Oatmeal agar medium (50 g/l Oatmeal agar (Sigma), 15 g/l Agar (Difco) for sensitivity testing.
(§3) Fungal strains used: • a) Botrytis cinerea (sensitive, wild-type) • b) Various mutants of Botrytis cinerea
(§4) The spores of Botrytis cinerea were harvested with a cotton swab from an Oatmeal agar plate (50 g/l Oatmealagar (Sigma, Art.O-3506), 15 g/l agar, (Difco) and this is dipped in 3 ml of double concentrated DOB-medium (3.4 g/l YNB (Becton Dickinson), 10 g/l Ammoniumsulfat, 40 g/l Glucose, adjusted to pH 7) and the spore suspension is adjusted to a spore density of 3.2×10^4 spores/ml. The compound solutions were diluted from stock solution in (dimethylsulfoxide) DMSO in several steps with sterile deionized water before use. High test concentrations were 50 mg/L (ppm) or 31 mg/L (ppm). Compound solutions were transferred into empty microplates and filled up with an equal amount of spore suspension.
(§5) The antifungal activity was determined by measuring the turbidity of a culture in 96-well microplates in the presence of test compounds after 7 days incubation at 620 nm. A blank value for each concentration (growth media+compound, without spores) are subtracted from the spore suspension. The relative antifungal activity was calculated by comparing the effect of the test compounds with the effect of a DMSO control The results are shown in Table IV (for compounds of general formula I.A), VI (for compounds of general formula I.B), and VIII (for compounds of general formula I.C).
(§6) A compound showing an IC50 (MUT) above the IC50 (WT) and showing an IC50 (MUT) to IC50 (WT) ratio being in a range above 100 is considered unsuitable (“I”) as DHODH inhibitor.
(§7) The absolute IC50-values (concentration of test compound resulting in 50% inhibition of fungal growth) were calculated from the resulting dose-response for each compound and strain.

[3] = test system: Botrytis cinerea mutant G111E; experiment: Activity against Botrytis cinerea in the microtiter test, mutant G111E; conditions: for IC50: Botrytis cinerea, MUTANTG111E, 168 h, read-out: Absolute IC50, G111E, Botrytis cinerea mutant G111E
Description: as §1, §2, §3, §4, §5, §6, §7

[4] = test system: Botrytis cinerea mutant H108P; experiment: Activity against Botrytis cinerea in the microtiter test, mutant H108P; conditions: for IC50: Botrytis cinerea, MUTANTH108P, 168 h, read-out: Absolute IC50, H108P, Botrytis cinerea mutant H108P
Description: as §1, §2, §3, §4, §5, §6, §7

[5] = test system: Botrytis cinerea (sensitive, wild-type); experiment: Activity against Botrytis cinerea in the microtiter test, wild type; conditions: turbidity at 620 nm after 7 days; for IC50: 168 h, read-out: Absolute IC50, wild type
Experimental: as §1, §3, §4, §5, §7

[6] = test system: Botrytis cinerea mutant G111V; experiment: Activity against Botrytis cinerea in the microtiter test, mutant G111V; conditions: for IC50: Botrytis cinerea, MUTANTG111V, 168 h, read-out: Absolute IC50, G111V, Botrytis cinerea mutant G111V
Description: as §1, §2, §3, §4, §5, §6, §7

[7] = test system: Botrytis cinerea mutant Y208H; experiment: Activity against Botrytis cinerea in the microtiter test, mutant Y208H; conditions: for IC50: Botrytis cinerea, MUTANTY208H, 168 h, read-out: Absolute IC50, Y208H, Botrytis cinerea mutant Y208H
Description: as §1, §2, §3, §4, §5, §6, §7

[8] = turbidity at 620 nm after 7 days

CN1c2c(F)cccc2C(c2cnc3c(F)cccc3c2)=NC1(C)C
IC50 [1]: 0.03 µg/mL (≈ 0.0889 µM)

4-[6-(difluoromethyl)-5-methyl-3-pyridyl]-8-fluoro-2,2-dimethyl-1H-quinazoline [compound 44]
Absolute IC50, V195F ([2]; Botrytis cinerea mutant V195F, turbidity at 620 nm after 7 days): 0.03 ppm
Absolute IC50, G111E ([3]; Botrytis cinerea mutant G111E, turbidity at 620 nm after 7 days): 0.08 ppm
Absolute IC50, H108P ([4]; Botrytis cinerea mutant H108P, turbidity at 620 nm after 7 days): 0.50 ppm
Absolute IC50, wild type [5]: 0.01 ppm
Absolute IC50, G111V ([6]; Botrytis cinerea mutant G111V, turbidity at 620 nm after 7 days): 0.73 ppm
Absolute IC50, Y208H ([7]; Botrytis cinerea mutant Y208H, turbidity at 620 nm after 7 days): 1.64 ppm

Cc1cc(C2=NC3(CCC(C)(C)C3)Oc3ccccc32)cnc1C (stereo not shown) [Ex 4]
IC50 [1]: 8.45 µg/mL (≈ 26.4 µM)

Cc1cc(C2=NC(C)(C)Oc3ccccc32)cnc1C [Ex 6]
IC50 [1]: 0.08 µg/mL (≈ 0.3 µM)

CCC1(CC)N=C(c2cnc(C)c(C)c2)c2ccccc2O1 [Ex 7]
IC50 [1]: 0.23 µg/mL (≈ 0.781 µM)

Cc1cc(C2=NC(C)(C(C)(C)C)Oc3ccccc32)cnc1C(F)F (stereo not shown) [Ex-3]
IC50 [2, 8]: 0.75 µg/mL (≈ 2.18 µM)
IC50 [3, 8]: 2.81 µg/mL (≈ 8.16 µM)
IC50 [4, 8]: 2.54 µg/mL (≈ 7.38 µM)
IC50 [5]: 0.19 µg/mL (≈ 0.552 µM)
IC50 [6, 8]: 3.17 µg/mL (≈ 9.2 µM)
IC50 [1]: 0.893 µg/mL (≈ 2.59 µM)

Cc1cc(C2=NC3(CCC3)Oc3c(F)cccc32)cnc1C [Ex-29]
IC50 [2, 8]: 0.02 µg/mL (≈ 0.0675 µM)
IC50 [3, 8]: 2.34 µg/mL (≈ 7.9 µM)
IC50 [4, 8]: 0.02 µg/mL (≈ 0.0675 µM)
IC50 ([5]; Botrytis cinerea): 0.02 µg/mL (≈ 0.0675 µM)
IC50 [6, 8]: 0.04 µg/mL (≈ 0.135 µM)
IC50 [7, 8]: 0.93 µg/mL (≈ 3.14 µM)

Cc1cc(C2=NC3(CCC3)Oc3ccccc32)cnc1C [Ex-32]
Absolute IC50, V195F ([2]; {}): 0.13 ppm
Absolute IC50, G111E ([3]; {}): 2.34 ppm
Absolute IC50, H108P ([4]; {}): 0.07 ppm
IC50 ([5]; Botrytis cinerea): 0.12 µg/mL (≈ 0.431 µM)
Absolute IC50, G111V ([6]; {}): 2.85 ppm
IC50 [7, 8]: 1.23 µg/mL (≈ 4.42 µM)

COc1ccc2c(c1)OC(C)(C)N=C2c1cnc(C(F)F)c(C)c1 [Ex-35]
IC50 [2, 8]: 0.05 µg/mL (≈ 0.15 µM)
IC50 [3, 8]: 2.7 µg/mL (≈ 8.12 µM)
IC50 [4, 8]: 0.29 µg/mL (≈ 0.873 µM)
IC50 [5]: 0.02 µg/mL (≈ 0.0602 µM)
IC50 [6, 8]: 0.72 µg/mL (≈ 2.17 µM)
IC50 [1]: 0.468 µg/mL (≈ 1.41 µM)
IC50 [7, 8]: 2.02 µg/mL (≈ 6.08 µM)

CCN1c2c(F)cccc2C(c2cnc(C(F)F)c(C)c2)=NC1(C)C [compound 45]
IC50 [2, 8]: 0.02 µg/mL (≈ 0.0576 µM)
IC50 [3, 8]: 0.57 µg/mL (≈ 1.64 µM)
IC50 [4, 8]: 0.4 µg/mL (≈ 1.15 µM)
IC50 [5]: 0.01 µg/mL (≈ 0.0288 µM)
IC50 [6, 8]: 0.96 µg/mL (≈ 2.76 µM)
IC50 [7, 8]: 0.27 µg/mL (≈ 0.777 µM)

Cc1cc(C2=NCC(C)(C)Oc3ccccc32)cnc1C [compound 47]
IC50 [2, 8]: 0.02 µg/mL (≈ 0.0713 µM)
IC50 [3, 8]: 2.47 µg/mL (≈ 8.81 µM)
IC50 [4, 8]: 0.83 µg/mL (≈ 2.96 µM)
IC50 ([5]; Botrytis cinerea): 0.04 µg/mL (≈ 0.143 µM)
IC50 [6, 8]: 0.55 µg/mL (≈ 1.96 µM)
IC50 [7, 8]: 1.9 µg/mL (≈ 6.78 µM)

Cc1cc(C2=NC(C)(C)C(C)(C)Oc3ccccc32)cnc1C(F)F [compound 49]
IC50 [2, 8]: 0.01 µg/mL (≈ 0.029 µM)
IC50 [3, 8]: 2.35 µg/mL (≈ 6.82 µM)
IC50 [4, 8]: 0.32 µg/mL (≈ 0.929 µM)
IC50 [5]: 0.01 µg/mL (≈ 0.029 µM)
IC50 [6, 8]: 0.7 µg/mL (≈ 2.03 µM)
IC50 [7, 8]: 0.97 µg/mL (≈ 2.82 µM)

Cc1cc(C2=NC3(CCC3)Oc3ccccc32)cnc1C [drawing 125, reference compound]
Absolute IC50, V195F ([2]; {}): 2.99 ppm
Absolute IC50, G111E ([3]; {}): 10.94 ppm
Absolute IC50, H108P ([4]; {}): 0.25 ppm
Absolute IC50, wild type [5]: 0.11 ppm
Absolute IC50, G111V ([6]; {}): 0.25 ppm
Absolute IC50, Y208H ([7]; {}): 1.43 ppm

CC(C)(C)C1(C)N=C(c2cnc3c(F)cccc3c2)c2ccccc2O1 (stereo not shown) [drawing 166]
IC50 [1]: 0.137 µg/mL (≈ 0.393 µM)

CC1(c2ccccc2)N=C(c2cnc3c(F)cccc3c2)c2cccc(F)c2O1 (stereo not shown) [drawing 168]
IC50 [1]: 0.154 µg/mL (≈ 0.399 µM)

COc1ccc2c(c1)OC(C)(C)N=C2c1cnc2c(F)cccc2c1 [drawing 170]
IC50 [1]: 0.06 µg/mL (≈ 0.178 µM)

CCN1c2c(F)cccc2C(c2cnc3c(F)cccc3c2)=NC1(C)C [drawing 175]
IC50 [1]: 0.03 µg/mL (≈ 0.0854 µM)

CC1(C)N=C(c2cnc3c(F)cccc3c2)c2ccccc2OC1(C)C [drawing 178]
IC50 [1]: 2 µg/mL (≈ 5.73 µM)

Fc1cccc2c1OC1(CCC1)N=C2c1cnc2ccccc2c1 [reference compound]
IC50 [2, 8]: 24.1 µg/mL (≈ 75.9 µM)
IC50 [3, 8]: 9.48 µg/mL (≈ 29.8 µM)
IC50 [4, 8]: 0.11 µg/mL (≈ 0.346 µM)
IC50 [5]: 0.03 µg/mL (≈ 0.0942 µM)
IC50 [6, 8]: 0.14 µg/mL (≈ 0.44 µM)
IC50 [7, 8]: 1.59 µg/mL (≈ 4.99 µM)
